Several values for one entry are separate records, joined by “and”; a condition that tells them apart may be missing. Equal values may be shown once.
System: 454973-116-R2-J3-PDC spheroids, viability, % test/control
Assay: Anticancer human tumor 454973-116-R2-J3-PDC patient-derived pancreatic carcinoma cell line growth inhibition [GQUAD]
Conditions: spheroids with HUVEC and MSC; for viability, T/C: stronger effect = lower value
Source text: DNA G-quadruplex Stabilizer Agents in Combinations in Complex Spheroids
A high-throughput screen of multi-cell type tumor spheroids was designed to identify active combinations of DNA G-quadruplex stabilizer agents and targeted small molecules. Complex spheroids include a stromal component modeled by human endothelial cells (HUVEC) and fibroblasts modeled by human mesenchymal stem cells (MSCs). The concentration ranges selected for each drug and investigational agent were based upon clinically achievable concentrations if the clinical Cmax of the agent was known.
Compounds. The drugs and investigational agents: pidnarulex (CX-5461; NSC782164), APTO-253 (NSC789042), BRACO-19 (NSC847499), peposertib (NSC802822), ceralasertib (NSC780249), elimusertib (NSC800525), camonsertib (NSC841442), AZD-1390 (NSC803789), olaparib (NSC753686), talazoparib (NSC767125), ART-558 (NSC835418), sotorasib (NSC818433), MRTX-1133 (NSC836407), SN-38 (NSC673596), topotecan (NSC609699), etoposide (NSC141540), doxorubicin (NSC123127), gemcitabine (NSC613327), 5-fluorouracil (NSC19893), paclitaxel (NSC125973), vemurafenib (NSC761431), panobinostat (NSC761190), R-306465 (JNJ-16241199; NSC773264), adavosertib (NSC754352), TP-3654 (NSC805149), carboplatin (NSC241240), KSQ-4279 (NSC840948), and staurosporine (NSC755774) were obtained from the National Cancer Institute (NCI) Developmental Therapeutics Program Chemical Repository (34). The FDA-approved anticancer drug set is available from the NCI Developmental Therapeutics Program. […] The stock solutions were prepared in dimethyl sulfoxide (DMSO, Sigma-Aldrich, St. Louis, MO, cat. D2650) at 800-fold the tested concentration and stored at -70 degrees C prior to their use. All drugs and investigational agents were tested over a range starting from a high concentration at or near the clinical Cmax and decreasing in half-log increments. If the clinical Cmax for an agent had not been determined, the highest concentration tested was 10 microM.
2.3 Cell Culture. All cells were maintained in an incubator at 37 degrees C and 5% CO2 with 95% humidity. The PDC lines were cultured according to standard operating procedures established by the NCI PDMR. All PDCs were thawed and cultured in Matrigel-coated flasks prepared with a working solution of 1X Ham's F-12 nutrient mix, without supplementation (Invitrogen, cat. 11765054), 100 U/mL penicillin-streptomycin (Invitrogen, cat. 15140122), and 2.5% Matrigel (Corning Inc., cat. 354248) for the first three passages. The 857933-349-R-J2-PDC line was cultured in 6C/Colon 1B media, which includes advanced DMEM/F-12 (Thermo Fisher Scientific, cat. 12634028), 10 mM HEPES (Thermo Fisher Scientific, cat. 15630080), 1X GlutaMAX supplement (Thermo Fisher Scientific, cat. 35050061), 0.1 mg/mL primocin (InvivoGen, cat. ant-pm-2), 10% defined fetal bovine serum, heat inactivated (HyClone Laboratories Inc., cat. SH30070.03HI), 50% L-WRN conditioned media (ATCC, cat. CRL-3276), 1.25 mM N-Acetyl-L-cysteine (Sigma-Aldrich, cat. A9165), 10 mM nicotinamide (Sigma-Aldrich, cat. N0636), 1X B-27 supplement (Thermo Fisher Scientific, cat. 17504044), 1X N-2 supplement (Thermo Fisher Scientific, cat. 17502048), 10 microM Y-27632 dihydrochloride (Tocris Bioscience, cat. 1254), and 50 ng/mL human EGF recombinant protein (Thermo Fisher Scientific, cat. PHG0311). The 485176-168-R4-J1-PDC line was cultured in Panc media, which includes all 6C/Colon 1B media components plus 100 ng/mL human FGF-10 (Thermo Fisher Scientific, cat. 100-26), 500 nM SB-431542 (Selleckchem, cat. S1067), and gastrin (Tocris, cat. 3006).
[…]
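Note: spheroids exposed to compounds for seven days.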

Row | SMILES | IC50 (curve of compound) | IC50 (compound alone, run of 04/16/2024) [nM] | IC50 (compound alone, run of 04/22/2024) [nM] | viability, T/C (compound 0.0316 µM) | viability, T/C (compound 0.1 µM) | viability, T/C (compound 0.316 µM) | viability, T/C (compound 1 µM) | viability, T/C (compound 3.16 µM) | viability, T/C (compound 10 µM) | viability, T/C (compound 0.000999 µM) | viability, T/C (compound 0.00316 µM) | viability, T/C (compound 0.00999 µM) | viability, T/C (compound 0.0999 µM)
1 | COc1cc(C2c3cc4c(cc3C(OC3OC5COC(C)OC5C(O)C3O)C3COC(=O)C23)OCO4)cc(OC)c1O (stereo not given) | 1170 nM and 1130 nM and 1390 nM |  |  | 106% and 98.1% and 115% | 94.7% and 92.3% and 78.7% | 85.6% and 89.4% and 87.1% | 55.2% and 52.1% and 61.5% | 23.5% and 22.8% and 25.1% | 15.8% and 12.7% and 15.5% |  |  |  | 
2 | COc1cccc2c1C(=O)c1c(O)c3c(c(O)c1C2=O)CC(O)(C(=O)CO)CC3OC1CC(N)C(O)C(C)O1 (stereo not given) | 151 nM and 225 nM and 162 nM |  |  | 96.8% and 101% and 90.3% | 63.4% and 69.4% and 65.3% | 24.1% and 34.5% and 26.2% | 25.2% and 30.2% and 26.5% | 11.2% and 23.5% and 13% | 0.95% and 0.93% and 0.63% |  |  |  | 
3 | Cc1[nH]c2ccccc2c1CCNCc1ccc(/C=C/C(=O)NO)cc1 | 75.5 nM and 72.5 nM and 67.7 nM |  |  | 87.6% and 82.6% and 84.8% |  | 6.04% and 6.14% and 2.02% |  |  |  | 106% and 102% and 99.1% | 112% and 98.9% and 102% | 103% and 102% and 105% | 37.9% and 37.3% and 32%
4 | Cc1cnc(CNC(=O)c2c(=O)c3ccc(N4CCCN(C)CC4)nc3n3c2sc2ccccc23)cn1 |  |  |  | 92.6% [middle of 12 runs] | 82.4% [middle of 12 runs] | 74% [middle of 12 runs] | 72.2% [middle of 12 runs] | 64.6% [middle of 12 runs] |  |  |  |  | 
5 | Nc1ccn(C2OC(CO)C(O)C2(F)F)c(=O)n1 (stereo not given) | < 31.6 nM |  |  | 19.1% and 19% and 20.8% | 16.1% and 13.3% and 15.5% | 15.3% and 17.1% and 18.8% | 16.3% and 16.7% and 16.6% | 17.3% and 14% and 17.2% | 16.6% and 13.6% and 14.2% |  |  |  | 
6 | O=C(NO)c1cnc(N2CCN(S(=O)(=O)c3ccc4ccccc4c3)CC2)nc1 | 189 nM and 212 nM and 193 nM |  |  | 107% and 108% and 101% | 78.2% and 86.9% and 86.3% | 27.8% and 30.5% and 22.7% | 1.65% and 3.03% and 1.16% | 0.25% and 0.22% and 0.12% | 0.25% and 0.95% and 0.29% |  |  |  | 
7 | O=c1[nH]cc(F)c(=O)[nH]1 | 2270 nM and 2110 nM and 2280 nM |  |  | 111% and 108% and 105% | 93.5% and 97.6% and 87.4% | 105% and 95.1% and 107% | 76% and 70.2% and 86.5% | 32.9% and 34.6% and 35.7% | 46.3% and 42.6% and 32.9% |  |  |  | 

More lines, main results first:

Row | IC50 (curve of compound) | IC50 (compound alone, run of 04/16/2024) [nM] | IC50 (compound alone, run of 04/22/2024) [nM] | SMILES | viability, T/C (compound 0.0316 µM) | viability, T/C (compound 0.1 µM) | viability, T/C (compound 0.316 µM) | viability, T/C (compound 1 µM) | viability, T/C (compound 3.16 µM) | viability, T/C (compound 10 µM) | viability, T/C (compound 0.000999 µM) | viability, T/C (compound 0.00316 µM) | viability, T/C (compound 0.00999 µM) | viability, T/C (compound 0.0999 µM)
8 | > 10000 nM and 7770 nM |  |  | COc1ccc([C@@H](O)c2cc(-c3ncnc4cc(N5CCOCC5)ccc34)c(F)cc2Cl)nn1 | 110% and 102% and 111% | 94.2% and 93% and 93.8% | 103% and 91.3% and 98.6% | 89% and 93.2% and 84% | 76.2% and 71.4% and 65% | 50.3% and 57.7% and 45.4% |  |  |  | 
9 | > 10000 nM |  |  | COc1ncnc(C2CC2)c1-c1ncc2cnn(Cc3ccc(-c4nc(C(F)(F)F)cn4C(C)C)cc3)c2n1 | 93.7% and 116% and 113% | 103% (2×) and 110% | 94.6% and 105% and 101% | 94.7% and 98.2% and 94.5% | 114% and 109% and 97.9% | 99.9% and 102% (2×) |  |  |  | 
10 |  | > 10000 | > 10000 | Cc1[nH]c2ccc(F)cc2c1-c1nc2c3cccnc3c3ncccc3c2[nH]1 | 106% [middle of 12 runs] | 110% [middle of 12 runs] | 106% [middle of 12 runs] | 105% [middle of 12 runs] | 100% [middle of 12 runs] | 88.5% [middle of 12 runs] |  |  |  | 
11 | > 10000 nM |  |  | Cc1cccc(N(C)C(=O)C2C(O)CCN2c2nc(C)cc(C(F)(F)F)c2C#N)c1 (stereo not given) | 93.2% and 106% and 100% | 98.7% and 101% and 97.4% | 105% and 106% (2×) | 102% and 93.6% and 108% | 110% and 108% and 113% | 107% (2×) and 101% |  |  |  | 
12 | > 316 nM |  |  | Cn1ncnc1[C@H]1c2n[nH]c(=O)c3cc(F)cc(c23)N[C@@H]1c1ccc(F)cc1 | 90.5% and 84.5% and 95% |  | 82.2% and 77.3% and 78.9% |  |  |  | 105% and 108% and 102% | 95.6% and 90.5% and 93.4% | 93.2% and 92.4% and 94.9% | 87.5% and 93.9% and 86.8%
13 | > 10000 nM |  |  | O=C(c1cc(Cc2n[nH]c(=O)c3ccccc23)ccc1F)N1CCN(C(=O)C2CC2)CC1 | 101% and 114% and 107% | 90.7% and 97.5% and 95.4% | 91.1% and 97.2% and 91.3% | 96.4% and 96.3% and 90.3% | 83.8% and 88.4% and 87.7% | 63.8% and 66.6% and 66.7% |  |  |  | 

— PubChem BioAssay AID2060508 (Molecular Pharmacology Branch, DTP, NCI, 2025)
